Data as given in ChEMBL document CHEMBL3045344, “Synthesis of d-amino acid peptides and their effect on beta-amyloid aggregation and toxicity in transgenic Caenorhabditis elegans” (Med Chem Res, 2013).
Active and inactive are the calls of the source. The rule behind the calls is not given here. Square brackets hold non-standard residues; d marks the D form. Peptide text beside a SMILES is read from it.

Key:
[1] = target: Amyloid-beta precursor protein (Homo sapiens) (UniProt P05067); assay: Inhibition of amyloid beta (1-42) (unknown origin) fibril formation at Abeta42/compound molar ratio of 1:1 after 3 days by thioflavin T fluorescence method
[2] = target: Amyloid-beta precursor protein (Homo sapiens) (UniProt P05067); assay: Induction of amyloid beta (1-42) (unknown origin) aggregation at Abeta42/compound molar ratio of 1:1 after 3 days by turbidity based assay
[3] = target: Amyloid-beta precursor protein (Homo sapiens) (UniProt P05067); assay: Induction of amyloid beta (1-42) (unknown origin) aggregation at Abeta42/compound molar ratio of 1:5 after 3 days by turbidity based assay
[4] = target: Amyloid-beta precursor protein (Homo sapiens) (UniProt P05067); assay: Stabilization of random coil conformation of amyloid beta (1-42) (unknown origin) after 3 days by CD spectroscopy
[5] = target: Amyloid-beta precursor protein (Homo sapiens) (UniProt P05067); assay: Binding affinity to amyloid beta (1-42) (unknown origin) assessed as increase in hydrophobic site exposure at Abeta42/compound molar ratio of 1:5 after 3 days by ANS fluorescence analysis
[6] = target: Amyloid-beta precursor protein (Homo sapiens) (UniProt P05067); assay: Inhibition of amyloid beta (1-42) (unknown origin) fibril formation at Abeta42/compound molar ratio of 1:5 after 3 days by thioflavin T fluorescence method
Caenorhabditis elegans [7] = assay: Increase in survival of transgenic Caenorhabditis elegans CL2006 expressing human amyloid beta42 at 123 ug/ml; assay type: functional, organism-based
[8] = target: Amyloid-beta precursor protein (Homo sapiens) (UniProt P05067); assay: Binding affinity to amyloid beta (1-42) (unknown origin) assessed as increase in hydrophobic site exposure at Abeta42/compound molar ratio of 1:1 after 3 days by ANS fluorescence analysis
[9] = target: Amyloid-beta precursor protein (Homo sapiens) (UniProt P05067); assay: Inhibition of amyloid beta (1-42) (unknown origin) assembly assessed as decrease in fibril formation after 3 days by ThT stain based fluorescence microscopy
[10] = target: Amyloid-beta precursor protein (Homo sapiens) (UniProt P05067); assay: Induction of amyloid beta (1-42) (unknown origin) oligomer formation after 48 hr by silver staining
Caenorhabditis elegans [11] = assay: Increase in survival of transgenic Caenorhabditis elegans CL2006 expressing human amyloid beta42 at 124 ug/ml; assay type: functional, organism-based
[12] = target: Amyloid-beta precursor protein (Homo sapiens) (UniProt P05067); assay: Inhibition of amyloid beta (1-42) (unknown origin) oligomer formation after 48 hr by silver staining
[13] = target: Amyloid-beta precursor protein (Homo sapiens) (UniProt P05067); assay: Inhibition of amyloid beta (1-42) (unknown origin) aggregation at Abeta42/compound molar ratio of 1:1 after 3 days by turbidity based assay
[14] = target: Amyloid-beta precursor protein (Homo sapiens) (UniProt P05067); assay: Inhibition of amyloid beta (1-42) (unknown origin) aggregation at Abeta42/compound molar ratio of 1:5 after 3 days by turbidity based assay
[15] = target: Amyloid-beta precursor protein (Homo sapiens) (UniProt P05067); assay: Induction of amyloid beta (1-42) (unknown origin) assembly assessed as mixed fibril and spherical aggregate formation after 3 days by ThT stain based fluorescence microscopy

Amyloid-beta precursor protein (Homo sapiens), sequence (P05067 whole entry): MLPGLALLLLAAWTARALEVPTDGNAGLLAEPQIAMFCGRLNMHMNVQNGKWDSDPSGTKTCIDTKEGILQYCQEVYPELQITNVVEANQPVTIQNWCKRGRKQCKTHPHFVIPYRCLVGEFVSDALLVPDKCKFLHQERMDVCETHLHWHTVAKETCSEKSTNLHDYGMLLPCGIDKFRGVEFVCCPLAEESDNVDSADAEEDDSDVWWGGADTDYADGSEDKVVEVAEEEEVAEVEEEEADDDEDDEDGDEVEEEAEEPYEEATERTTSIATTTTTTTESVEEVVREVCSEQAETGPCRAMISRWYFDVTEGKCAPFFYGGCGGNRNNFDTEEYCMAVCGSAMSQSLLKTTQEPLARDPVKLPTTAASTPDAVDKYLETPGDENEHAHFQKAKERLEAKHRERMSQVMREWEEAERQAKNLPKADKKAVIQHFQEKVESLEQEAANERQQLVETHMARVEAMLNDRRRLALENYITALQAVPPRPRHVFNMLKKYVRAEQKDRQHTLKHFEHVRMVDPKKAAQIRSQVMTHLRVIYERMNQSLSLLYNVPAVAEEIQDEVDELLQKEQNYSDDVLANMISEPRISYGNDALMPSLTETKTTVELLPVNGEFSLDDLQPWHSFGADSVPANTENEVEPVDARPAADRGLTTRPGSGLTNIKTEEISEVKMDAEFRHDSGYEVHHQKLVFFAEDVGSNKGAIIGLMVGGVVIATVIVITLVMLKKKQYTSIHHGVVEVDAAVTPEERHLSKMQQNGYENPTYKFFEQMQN

inhibition [1] | Activity [2] | Activity [3] | Activity [4] | Activity [5] | inhibition [6] | Activity [8] | inhibition [9] | Activity [10] | inhibition [12] | inhibition [13] | inhibition [14] | Activity [15] | Structure (SMILES) | Activity (Caenorhabditis elegans [7]) | Activity (Caenorhabditis elegans [11])
Active | Active | Active | Active | Active | Active | Active | Active | Active | – | – | – | – | CC(C)C[C@@H](NC(=O)[C@@H](CCCCN)NC(=O)[C@H](N)CCCCN)C(=O)N[C@@H](C(=O)N[C@H](Cc1ccccc1)C(=O)N[C@H](Cc1ccccc1)C(=O)N[C@H](C)C(=O)N[C@H](CCCNC(=N)N)C(=O)N[C@H](CCCNC(=N)N)C(=O)N[C@H](CCCNC(=N)N)C(=O)N[C@H](CCCNC(=N)N)C(=O)N[C@H](C)C(=O)O)C(C)C | inactive | –
Active | Active | Active | Active | Active | Active | Active | Active | – | Active | – | – | – | CC(C)C[C@@H](NC(=O)[C@@H](CCCCN)NC(=O)[C@H](N)CCCCN)C(=O)N[C@@H](C(=O)N[C@H](Cc1ccccc1)C(=O)N[C@H](Cc1ccccc1)C(=O)N[C@H](C)C(=O)O)C(C)C (H-[dK][dK][dL][dV][dF][dF][dA]-OH) | – | Active
inactive | – | – | Active | Active | inactive | Active | – | – | Active | Active | Active | Active | CC(C)C[C@@H](NC(=O)[C@@H](CCCCN)NC(=O)CNC(=O)[C@H]1CCCN1)C(=O)N[C@@H](C(=O)N[C@H](Cc1ccc(O)cc1)C(=O)N[C@H](C)C(=O)O)C(C)C | – | Active
